Legend:
HeLa cells [1] = assay: Wound healing assay; type: cell-based, human; settings: after 48 h, control 55.7%
Description: A total of 1 × 10^6 cells/well in the logarithmic growth phase were seeded in 6-well plates. When cell density reached 80 to 90%, a scratch was made in the monolayer in the middle of the well with a 200 μL pipette tip. The tip was kept perpendicular to the bottom of the well to obtain a straight gap. The detached cells were washed away and removed. The healing of the wound within the same scraped line was then observed and photographed at the indicated time points (0 h, 24 h, 48 h). Each experiment was repeated three times.

HeLa cells [2] = assay: Annexin V-FITC/PI apoptosis assay, flow cytometry; type: cell-based, human; settings: control 3.5%
Description: For the Annexin V apoptosis assay, cells were collected at the end of the treatment, washed with cold PBS, and stained with the PI/Annexin V-FITC apoptosis kit (4A Biotech Co., Ltd., Beijing, China) following the manufacturer’s instructions. All flow cytometric analyses were performed at the Tianfu Science and Technology Park Molecular and Cell Platform in the West China Hospital.

[3] = system: Bcl-2 and Bax in HeLa cells; assay: Western blot of Bcl-2 and Bax; type: cell-based, human; settings: 24 h
Description: HeLa cells were seeded in a 6-well plate overnight and treated with QW12 for 24 h. The cells were then harvested and washed with cold PBS and lysed with RIPA buffer supplemented with a protease and phosphatase inhibitor cocktail. Protein concentration was measured using a BCA protein assay kit (Boster Biological Technology Co., Ltd., Wuhan, China). Proteins were separated by 10% SDS-PAGE gel and transferred onto polyvinylidene difluoride (PVDF) membranes (Millipore Co., Billerica, MA, USA). After blocking with 5% mild in PBST for 1 h at room temperature, membranes were incubated with specific primary antibodies against STAT3 (#ET1605-45), Bcl-2 (#ET1603-11), Bax (#ET1603-34), or GAPDH (#HA721136) overnight at 4 °C. The above antibodies were purchased from HUABIO, China. Phospho-STAT3 (Tyr 705) (#9145S) and anti-rabbit IgG, HRP-linked antibody (#7074S) were purchased from Cell Signaling Technology, Inc. America. The next day, the membranes were washed with PBST three times and incubated with secondary antibodies 2 h at room temperature. Images were captured and documented with a CCD system (Tanon 5200, Biotanon, Shanghai, China).

L02 cells = assay: CCK-8 cytotoxicity against normal hepatocytes L02; type: cell-based; settings: Homo sapiens, 48 h, read-out: IC50 ± SD, L02 (human normal hepatocytes)
Description: Human lung carcinoma cell lines A549, human cervical cancer cell lines HeLa, human prostate cancer cell lines PC3, human colorectal carcinoma cell lines HCT116, and human liver cells L02 were purchased from the Chinese Academy of Sciences Shanghai Cell Bank (Shanghai, China). HeLa, A549, PC3, HCT116, and L02 cells were cultured in DMEM Dulbecco’s Modified Eagle Medium (DMEM; Gibco Inc., Gaithersburg, MD, USA). All cultures were provided with 10% fetal bovine serum (FBS; YHSM, Beijing, China), 100 IU/mL penicillin, and 100 μg/mL streptomycin, and cells were incubated at 37 °C in an atmosphere of 5% CO2.
Cell viability was determined using a CCK-8 kit (Apexbio, Houston, TX, USA). […] Subsequently, absorbance was assessed at 450 nm. Three duplicates were set in each group.
To further evaluate the anticancer effect of QW12, we evaluated its cytotoxicity against four human cancer cell lines: HeLa (Human cervical tumor), PC3 (Human prostate tumor), HCT116 (Human colorectal carcinomas), and A549 (Human lung carcinoma). […] Furthermore, the IC50 values of QW12 against PC3 and HCT116 were similar to those of nifuroxazide.

HeLa cells [4] = assay: Colony formation (plate-cloning) assay; type: cell-based, human; settings: different concentrations, 24 h treatment
Description: HeLa cells were digested and seeded directly in 6-well plates (1 × 10^3 cells/well) for the colony-formation assay and cultured in the presence of 10% FBS and 1% penicillin/streptomycin at 37 °C with 5% CO2 for 12 h in confluent cell monolayers. The cells were then treated with QW12 at the indicated concentrations for 24 h. Two weeks later, the medium was removed, and the plates were washed with phosphate-buffered saline (PBS) three times. Cells were fixed with anhydrous ethanol for 30 min and then stained with Giemsa dye solution (Solarbio) for 30 min. The plates were dried with a blower to ensure high-quality images were obtained. Colonies were defined as >50 cells/colony.

HeLa cells [5] = assay: Hoechst-33342 staining; type: cell-based, human; settings: 24 h, vs control
Description: HeLa cells (4 × 10^5 cells) were incubated in a 6-well plate for 12 h. The cells were then treated with QW12 at the indicated concentrations for 24 h. The cells were washed twice with PBS. The cells were then incubated with Hoechst-33342 (10 μg/mL) for 5 min at room temperature in darkness. After incubation, stained cells were observed under an inverted phase contrast microscope (OLYMPUS IX73, Tokyo, Japan).

[6] = HeLa cells, 10, 40 μM, vs control

In the case of COc1cc(-c2ccc(/C=N/NC(=O)c3ccc(O)cc3)o2)c(OC)cc1-c1ccc2nccnc2c1 [QW12, (E)-N’-((5-(2,5-dimethoxy-4-(quinoxalin-6-yl)phenyl)furan-2-yl)methylene)-4-hydroxybenzohydrazide], the “rate of scratch closure” value (HeLa cells [1]; 10 μM) is reported as 28.0%, the “rate of scratch closure” value (HeLa cells [1]; 40 μM) is reported as 17.2% and the cell apoptosis rate (HeLa cells [2]; 10 μM) is reported as 13.9%. The cell apoptosis rate (HeLa cells [2]; 40 μM) was 34.7%, the Bcl-2/Bax expression ratio ([3]; 40 μM, control 1.00) was 0.66 ± 0.01 and the Bax expression [3, 6] was “increased slightly”. The Bcl-2 expression [3, 6] was “decreased significantly”, the IC50 (L02 cells) was > 50 µM and the “effect on proliferation in plate-cloning assay” value (HeLa cells [4]) was “proliferated at a significantly lower rate than the control”. The “nuclear morphology (Hoechst staining)” value (HeLa cells [5]) was “significant apoptotic morphological characteristics were observed”.

Reference: paper PMC9698340, “Discovery and SAR Study of Quinoxaline–Arylfuran Derivatives as a New Class of Antitumor Agents” (Pharmaceutics, 2022)
